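Assay format: 96-well plates, 48-hour exposure. At the GI50, growth is halved. TGI denotes the concentration required for complete inhibition of growth.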
Columns and labels:
Test in all cases: growth of human tumour cells (NCI), 48 h
[1] = test system: KM12 colon
[2] = test system: SR leukemia
[3] = test system: UACC-62 melanoma
[4] = test system: SF-268 CNS
[5] = test system: A549 NSCLC
[6] = test system: TK-10 renal
[7] = test system: HOP-92 NSCLC
[8] = test system: HCC-2998 colon
[9] = test system: HCT-116 colon
[10] = test system: NCI-H226 lung

Row | SMILES | TGI [1] [µM] | TGI [2] [µM] | TGI [3] [µM] | TGI [4] [µM] | TGI [5] [µM] | TGI [6] [µM] | TGI [7] [µM] | TGI [8] [µM] | TGI [9] [µM] | GI50 [1] [µM] | GI50 [2] [µM] | GI50 [3] [µM] | GI50 [4] [µM] | GI50 [5] [µM] | GI50 [6] [µM] | GI50 [7] [µM] | GI50 [9] [µM] | TGI [10] [µM] | GI50 [10] [µM] | GI50 [8] [µM]
1 | O=C(CCc1ccccc1)CC1OC(=O)C(Cl)=C1Cl (centres undefined) | 33.8 | > 100 | 31.7 | 79.9 | > 100 | 57.7 | 41.1 | 32.6 | 28 |  |  |  |  |  |  |  |  |  |  | 
2 | CC1=C(C(=O)Nc2ccc(Cl)c(Cl)c2)C(c2cccc(Cl)c2)NC(=S)N1 (centres undefined) | 37.6 | > 50 | 18.1 | 41.8 | 48.3 | > 50 | > 50 |  | 21.5 | 11.6 | 17.1 | 8.1 | 16.5 | 11.2 | 17.7 | 14.2 | 7.75 |  |  | 
3 | Cc1ccc(S(=O)(=O)C2CC2(Cl)Cl)cc1 (centres undefined) | > 100 |  | 60.4 | > 100 | > 100 | > 100 | 47.8 | > 100 | 44.7 |  |  |  |  |  |  |  |  | > 100 |  | 
4 | COc1ccc(-c2c(-c3ccc(C#N)c(F)c3)nc(N3CCC(N)CC3)n(C)c2=O)cc1F | 41.5 | 34.6 | 32.9 | 87 | > 100 | 32.4 |  | 26.7 | > 100 | 20 | 12.2 | 16.1 | 20.4 | 29.8 | 12.8 |  | 13.1 | > 100 | 50 | 13
5 | O=C1Cc2cc(CCN3CCNCC3)c(Cl)cc2N1 | > 100 | > 100 | > 100 | > 100 | > 100 |  |  | > 100 | > 100 | 3.96 | 6.2 | 6.54 | 12.7 | 6.85 |  |  | 10 | > 100 | > 100 | 46.6
6 | CCc1c(C)c2cc(-n3c(-c4ccc(OC)cc4)csc3=N)c(O)c(C)c2oc1=O | 8.37 |  | 2.94 | 10.3 | 12.3 | 8.35 | 7.76 | 10.2 | 2.99 | 1.32 |  | 1 | 2.1 | 2.7 | 4.36 | 1.88 | 1.23 | 9.73 | 2.13 | 3.09
7 | COc1ccc(/C=C/c2ccnc3ccccc23)cc1OC | 30.8 | 54.2 | 29.4 | 27.8 | 31.2 | 28.9 |  | > 100 | 25.1 |  |  |  |  |  |  |  |  | 48.5 |  | 
8 | CC(=O)CC(=O)Nc1ccccc1C(F)(F)F |  |  | > 100 | > 100 | > 100 | > 100 | > 100 | > 100 | > 100 |  |  |  |  |  |  |  |  | > 100 |  | 
9 | Fc1ccc(Nc2nc(Nc3ccc(-c4nc5ccccc5[nH]4)cc3)c3cn[nH]c3n2)cc1 | 3.48 | 5.9 |  | 5.4 | 6.78 | 5.29 | 3.19 | 3.05 | 3.58 | 1.64 | 2.22 |  | 2.11 | 2.75 | 2.29 | 1.5 | 1.75 | 7.07 | 2.62 | 1.57
10 | NS(=O)(=O)c1ccc(N=Nc2c[nH]c(=O)c(O)c2)cc1 | > 100 | > 100 | > 100 | > 100 | > 100 | > 100 | > 100 |  | > 100 |  |  |  |  |  |  |  |  | > 100 |  | 
11 | COc1ccc2c(c1)[n+]([O-])c(-c1ccccc1Cl)c(N)[n+]2[O-] | > 100 | > 100 |  | > 100 | > 100 |  | > 100 |  | > 100 |  |  |  |  |  |  |  |  | > 100 |  | 
12 | N#Cc1c(N)nc(N2CCOCC2)c(C#N)c1-c1c(Cl)cccc1Cl | 77.8 |  | 19.7 | > 100 | 95.6 | > 100 | 46 | 2.48 | 12.2 | 6.42 |  | 3.87 | 11.3 | 10.3 | 20.9 | 4.68 | 3.07 | 73.8 | 15.2 | 0.0181
13 | Oc1[nH]c2ccccc2c1C=Nc1ccc(-n2cncn2)cc1 | > 25 | > 25 | > 25 | > 25 | > 25 | > 25 |  | > 25 | > 25 | 0.991 | 19 | 14.6 | > 24.1 | > 18.5 | > 17.1 |  | > 22.1 | > 22.1 | 8.34 | > 25
14 | COc1ccc2nc3ccccc3c(NCCCCN(CCCl)CCCl)c2c1 | 3.48 | 2.79 | 1.42 | 2.36 | 6.25 |  |  | 6.06 | 1.32 |  |  |  |  |  |  |  |  | 9.65 |  | 
15 | COC(=O)[C@@]12C3=NO[C@]1(C(=O)OC)C(O[Si](C)(C)C(C)(C)C)[C@@H](OC(C)=O)[C@@H](OC(C)=O)[C@@H]2[C@@H](OCc1ccccc1)CC3 (some centres undefined) | > 100 |  | > 100 | > 100 | > 100 | > 100 | > 26.1 | > 100 | > 100 |  |  |  |  |  |  |  |  | > 100 |  | 
16 | COc1ccc2nc3ccccc3c(NCCNCC(C)O)c2c1 (centres undefined) | 14.2 | 10.8 | 2.08 | 11.1 |  | 6.04 | 3.48 | 2.37 | 1.41 | 0.536 | 0.278 | 0.354 | 0.583 |  | 0.54 | 0.393 | 0.241 | 4.79 | 0.708 | 0.519
17 | Cc1ccc(S(=O)(=O)NNS(C)(=O)=O)cc1 | > 100 | > 100 | > 100 | > 100 | > 100 | > 100 |  | > 100 | > 100 |  |  |  |  |  |  |  |  |  |  | 
18 | CC(=O)[CH-]C(=O)c1ccccc1.CC(=O)[CH-]C(=O)c1ccccc1.CC(=O)[CH-]C(=O)c1ccccc1.[Ga+3] | 31.1 |  | 30 | 26.9 | > 100 | 68.6 | 51.9 | 29.9 | 29.8 | 16.8 |  | 16.4 | 11.6 | 34.4 | 24 | 29.8 | 15.5 | 43.5 | 16.8 | 13.9
19 | O=C(CI)Nc1ccc(Br)cc1 | 10.7 | > 100 | 14.8 | 3.65 | 29.3 | 3.63 |  | 27.3 | 3.45 | 2.9 | 0.365 | 3.96 | 1.8 | 5.89 | 1.92 |  | 1.88 | 19.2 | 3.78 | 13.4
20 | O=C(C(=CN1CCN(C(=O)c2ccco2)C1=S)C(=O)c1ccccc1)c1ccccc1 | 11.5 | 6.72 | 18.3 |  | 29.1 | 22.1 | > 50 |  | 17 | 2.31 | 1.28 | 6.93 |  | 11.3 | 6.87 | 27 | 7.93 |  |  | 
21 | CC1=C[C@@H]2c3c(c(O)c(O)c4oc5cc(O)cc(O)c5c(=O)c34)[C@@H](c3cc(O)c(O)c4oc5cc(O)cc(O)c5c(=O)c34)[C@@H]2C(C)(C)C1 | 12.2 |  | 5.72 | 16.1 | 17.6 | 19.2 | 6.6 | 15.2 | 9.85 | 3.1 |  | 1.88 | 3.25 | 4.12 | 5.85 | 1.85 | 2.7 | 28.4 | 3.82 | 3.87
22 | N#CC1=C(N)OC2=C(CCOc3c2ccc2ccccc32)C1c1ccc(Br)cc1 (centres undefined) | 34.3 | 57.8 | > 100 | > 100 | > 100 | 61.6 | 47.4 | 56.9 | 47.7 | 14.6 | 17 | 48.1 | 27.8 | 47.1 | 21.6 | 14.1 | 15.1 |  |  | 22.1
23 | COc1ccc2c(c1)C(=O)c1c-2n(CCCN(C)C)c(=O)c2cc([N+](=O)[O-])ccc12 | 0.556 |  | < 0.01 | 2.29 |  | 5.38 | 1.44 | 0.255 | 0.21 | 0.025 | < 0.01 | < 0.01 | < 0.01 |  | 0.604 | 0.0329 | < 0.01 | 1.53 | < 0.0227 | 0.0131
24 | COC1/C(=C\C(C)=O)c2ccccc2N1C(C)=O (centres undefined) | > 100 | > 100 | > 100 |  | > 100 |  | > 100 | > 100 | > 100 |  |  |  |  |  |  |  |  |  |  | 
25 | COc1ccc(C(O)c2ccccn2)cc1 (centres undefined) | > 100 | > 100 | > 100 | > 100 | > 100 | > 100 | > 100 |  | > 100 |  |  |  |  |  |  |  |  | > 100 |  | 
26 | C=CCSC(C)=O | > 100 | > 100 | > 100 | > 100 | > 100 | > 100 |  | > 100 | > 100 |  |  |  |  |  |  |  |  | > 100 |  | 
